In US11583495B2, “Nasal composition comprising a mucoadhesive polymer” (Northriver Pharm, LLC, priority 2017, dated 2023):

Assay: Drug release through lamb buccal mucosa, flow-through Franz diffusion cell
Conditions: from CARBOPOL ETD 2020 NF (1%) solution containing triamcinolone and phenol
Procedure: Drug release through lamb buccal mucosa was evaluated via a flow-through Franz diffusion cell. Lamb buccal mucosa was clamped into the cell and the receptor chamber was filled with 5 mL of phosphate buffered solution (PBS). CARBOPOL® ETD 2020 NF (1%) solution containing triamcinolone and phenol was applied to the donor chamber. 0.5 mL of PBS was withdrawn from the receptor chamber every 30 minutes and replaced with fresh PBS over the course of 7 hours. Each sample was placed in a cuvette for testing via UV-Vis spectrophotometry. The sample was compared to a set of calibration standards of known concentrations for triamcinolone and phenol, independently. […] The peaks at 225 nm and 270 nm correspond to phenol, and the peak at 240 corresponds with triamcinolone.

## Oc1ccccc1 [Phenol, phenol]
UV-Vis, based on calibration curve, over 7 hours
  Phenol diffusion through the mucosa: less than 0.025%
Sampled every 30 minutes over 7 hours
  amounts released over time and diffused through the lamb buccal mucosa: Increasing amounts
